Key:
[1] = tested on: glycine site coupled to the NMDA ionophor complex; conditions: literature, in words; cited from earlier work
[2] = target: T1, glycine site of the NMDA receptor complex (Rattus norvegicus, UniProt P35439); assay: [3H]-glycine binding (Test 1); conditions: displacement of 50% of specific [3H]-glycine binding; rat cerebral cortical membrane homogenate, pH 7.1, 0° C., 10 min
T1 construct: thawed rat cerebral cortical membrane homogenate; from tissue; host or cells: rat cerebral cortical membrane homogenate
Experimental: The glycine site binding activity of these compounds of the present invention can be illustrated by determining their capability for displacing radioactively labelled glycine from the glycine site.
The displacement activity of the compounds may be shown by determining the IC50 value which represents the concentration (μM) which causes a displacement of 50% of the specific binding of [^3 H]-glycine.
^3 H]-glycine binding (Test 1)
1 ml of thawed rat cerebral cortical membrane homogenate in HEPES-Tris (5 mM) and MgCl2 (1 mM) pH 7.1 were incubated at 0° C. for 10 min. with […] and the test compound and buffer. Non-specific binding was determined by incubating with D-serine (1 mM final concentration). The binding reaction was terminated by centrifugation at 15,000 ×g at 4° C. followed by washing of the pellet with three times 3 ml of ice-cold buffer. Bound radioactivity was measured by scintillation counting. IC50 was determined by Hill analysis of at least four concentrations of test compound.

[3] = target: T1, glycine site of the NMDA receptor complex; assay: Antagonism of glycine enhanced [3H]-MK-801 binding (Test 2); conditions: dissociation constant of receptor-antagonist complex, Schild analysis; rat cerebral membrane homogenate, pH 7.40, 23° C., 60 min, 1 nM [3H]-MK-801, 300 nM glutamate
Experimental: The glycine antagonism is measured by determining the Ki value which represents the dissociation constant (μM) of the receptor-antagonist complex.
Antagonism enhanced [^3 H]-MK-801 binding (Test 2)
1 ml of thawed and extensively washed rat cerebral membrane homogenate in HEPES-NaOH (20 mM) pH 7.40 were incubated at 23° C. for 60 min. with 25μl[^3 H]-MK-801 (1 nM final concentration), 25 μl glutamate (300 nM final concentration), test compound in concentrations corresponding to 0, 0.5, 2 and 5 times the IC50 value from the [^3 H]-glycine binding assay (test 1) for each concentration of glycine (10; 100; 1,000; 10,000 and 100,000 nM final concentration). The binding reaction was terminated by adding 5 ml of ice- cold buffer followed by rapid filtration through Whatman GF/C glass fiber filters and 5 ml wash with ice-cold buffer. Bound radioactivity was measured by scintillation counting. Ki values were determined by Schild analysis of the data using
log(dosis ration-1)=log[Inhibitor]-log(Ki)

[4] = tested on: NMDA stimulated [3H]-GABA release from cultured mouse cerebral cortex interneurons; assay: Inhibition of NMDA stimulated [3H]-GABA release from cultured mouse cerebral cortex interneurons (Test 3); format: cell-based; conditions: inhibits 50% of NMDA induced [3H]-GABA release, 3 μg/ml NMDA, 37° C.
Excerpt: The NMDA antagonistic properties of the compounds is illustrated by determining their capability to antagonize NMDA stimulated [^3 H]-GABA release from cultured mouse cortex neurons. The NMDA antagonistic activity of the compounds may be shown by determining the IC50 value, which represents the concentration (μM) which inhibits 50% of NMDA induced [^3H]-GABA release.
Inhibition of NMDA stimulated [^3 H]-GABA release from cultured mouse cerebral cortex interneurons (Test 3)
Release experiments are performed using the model described by Drejer et al. (Life Sci. 38, 2077 (1986)). To cerebral cortex interneurons cultured in petri dishes (30 mm) are added 100 μg/ml 3-vinyl-GABA one hour before the experiment in order to inhibit degradation of GABA in the neurons. 30 min. before the experiment 5 μCi [^3 H]-GABA added to each culture and after this preloading period the cells are washed twice with HEPES buffered saline (HBS) containing 10 mM HEPES, 135 mM NaCl, 5 mM KCl, 0.6 mM MgSO4, 1.0 mM CaCl2 and 6 mM D-glucose; pH 7 and placed in a superfusion system. This system consists of a peristaltic pump continuously delivering thermostated 37° C. superfusion medium from a reservoir to the top of a slightly tilted petri dish. The cell monolayer at the bottom of the dish is covered with a piece of nylon mesh to facilitate dispersion of medium over the cell layer. The medium is continuously collected from the lower part of the dish and delivered to a fraction collector. Initially, the cells are superfused with HBS for 15 min. (flow rate 2 ml/min.). Then cells are stimulated for 30 sec. every 4 min. by changing the superfusion medium from HBS to a corresponding medium containing NMDA and antagonist according to the following scheme:
Stimulation no. 1: 3 μg/ml NMDA
Stimulation no. 2: 3 μg/ml NMDA +0.3 μg/ml antagonist
Stimulation no. 3: 3 μg/ml NMDA +3.0 μg/ml antagonist
The release of [^3 H]-GABA in the presence of NMDA is corrected for the mean basal release before and after stimulation. The stimulated release in the presence of antagonist is expressed relative to the stimulated release by NMDA alone and the IC50 value is calculated.

| IC50 [2] [µM] | Ki [3] [µM] | IC50 [4] [µM] | Structure (SMILES) | activity at the glycine site [1] |
| --- | --- | --- | --- | --- |
| 0.052 | 0.008 | 0.039 | O=c1[nH]c2sc3ccc(F)cc3c2[nH]c1=O [Example 1, 8-Fluoro[1]benzothieno[2,3-b]pyrazine-2,3(1H,4H)-dione] | – |
| 0.056 | 0.04 | 0.011 | O=c1[nH]c2sc3ccc(Cl)cc3c2[nH]c1=O [Example 2, 8-Chloro[1] benzothieno[2,3-b]pyrazine-2,3(1H,4H)-dione] | – |
| 0.069 | 0.018 | – | O=c1[nH]c2sc3ccc(Br)cc3c2[nH]c1=O [Example 4, 8-Bromo[1]benzothieno[2,3-b]pyrazine-2,3(lH,4H)-dione] | – |
| 0.312 | – | 0.068 | O=c1[nH]c2sc3c(Cl)cc(Cl)cc3c2[nH]c1=O [Example 7, 6,8-Dichloro[1]benzothieno[2,3-b]pyrazine-2,3(1H,4H)dione] | – |
| 1 | – | 0.112 | O=c1[nH]c2sc3ccc(I)cc3c2[nH]c1=O [Example 8, 8-Iodo[1]benzothieno[2,3-b]pyrazine-2,3(1H,4H)-dione] | – |
| 15 | – | – | COc1ccc2c(c1)sc1[nH]c(=O)c(=O)[nH]c12 [Example 11, 7-Methoxy[1]benzothieno[2,3-b]pyrazine-2,3(lH,4H)-dione] | – |
| 0.54 | – | – | O=c1[nH]c2sc3cc(Br)c(F)cc3c2[nH]c1=O [Example 14, 7-Bromo-8-fluoro[1]benzothieno[2,3-b]pyrazine-2,3-(1H,4H)-dione] | – |
| 13 | 16 | 25 | NC1CCN(O)C1=O (centres unmarked) [HA-966, 3-amino-1-hydroxy-2-pyrrolidone, reference compound] | weak antagonists |

The remaining lines, values behind:

| Structure (SMILES) | IC50 [2] [µM] | Ki [3] [µM] | IC50 [4] [µM] | activity at the glycine site [1] |
| --- | --- | --- | --- | --- |
| N#Cc1cc2[nH]c(=O)c(=O)[nH]c2cc1[N+](=O)[O-] [CNQX, 6-cyano-7-nitroquinoxaline 2,3-dione] | – | – | – | weak antagonists |
| C[C@@H](N)C(=O)O [D-alanine] | – | – | – | strong agonist activity |
| N[C@@H]1CONC1=O [D-cycloserine] | – | – | – | partial agonists |
| N[C@H](CO)C(=O)O [D-serine] | – | – | – | strong agonist activity |
| O=c1[nH]c2sc3ccccc3c2[nH]c1=O [Example 3, [1]Benzothieno[2,3-b]pyrazine-2,3(1H,4H)-dione] | 0.284 | 0.208 | 0.085 | – |
| O=c1[nH]c2sc3cc(Cl)ccc3c2[nH]c1=O [Example 5, 7-Chloro[1]benzothieno[2,3-b]pyrazine-2,3(1H,4H)-dione] | 6 | – | – | – |
| O=C(O)c1cc(O)c2ccc(Cl)cc2n1 [Example 7-Cl-Kyn, 7-chlorokynurenic acid, reference compound] | 1.4 | 0.71 | 1.3 | quite strong antagonists |
| O=c1[nH]c2sc3ccc(C(F)(F)F)cc3c2[nH]c1=O [Example 9, 8-Trifluoromethyl[1]benzothieno[2,3-b]pyrazine-2,3-(1H, 4H)-dione] | 7 | – | – | – |
| COc1cccc2c1sc1[nH]c(=O)c(=O)[nH]c12 [Example 10, 6-Methoxy[1]benzothieno[2,3-b]pyrazine-2,3(lH,4H)-dione] | 10.8 | – | – | – |
| O=c1[nH]c2sc3c(Cl)cccc3c2[nH]c1=O [Example 12, 6-Chloro[1]benzothieno[2,3-b]pyrazine-2,3(lH,4H)-dione] | 0.18 | 0.041 | – | – |
| O=c1[nH]c2sc3c(F)cccc3c2[nH]c1=O [Example 13, 6-Fluoro[1]benzothieno[2,3-b]pyrazine-2,3(lH,4H)-dione] | 0.262 | – | – | – |

— US5182279A, “Benzothienopyrazinedione compounds and their preparation and use” (Novo Nordisk A/S, priority 1990, dated 1993)
